Consider seven compounds from paper PMC7794939, “Discovery of Monoacylglycerol Lipase (MAGL) Inhibitors Based on a Pharmacophore-Guided Virtual Screening Study” (Molecules, 2020).

Holding throughout (assay type): biochemical
Test [1] deals with T1, Human recombinant MAGL (Homo sapiens, UniProt Q99685).
T1 construct: purchased Cayman Chemical (Ann Arbor, MI, USA)
T1 sequence (Q99685 1-303): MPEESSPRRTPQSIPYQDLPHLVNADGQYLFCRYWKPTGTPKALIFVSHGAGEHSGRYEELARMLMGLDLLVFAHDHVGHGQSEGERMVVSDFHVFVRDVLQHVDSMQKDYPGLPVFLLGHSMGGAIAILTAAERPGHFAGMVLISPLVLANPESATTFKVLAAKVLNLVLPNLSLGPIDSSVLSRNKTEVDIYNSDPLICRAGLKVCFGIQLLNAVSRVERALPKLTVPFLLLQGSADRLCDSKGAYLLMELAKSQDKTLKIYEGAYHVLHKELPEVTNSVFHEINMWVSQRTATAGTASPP
Nature of the test: MAGL enzyme inhibition assay (4-NPA substrate, absorbance 405 nm). The note with it: 30 min, rt, pH 7.2. Here is the method:
Human recombinant MAGL and 4-nitrophenyl acetate substrate (4-NPA) were bought from Cayman Chemical (Ann Arbor, MI, USA). […] The IC50 values were produced in 96-well microtiter plates. The MAGL reaction was carried out at rt at a final volume of 200 µL in 10 mM Tris buffer, pH 7.2, containing 1 mM EDTA and 0.1 mg/mL BSA. […] The reaction was started by adding 40 µL of MAGL (11 ng/well) in such a way that the assay was linear over 30 min. […] Two more reactions were carried out: one reaction containing no compounds and the second one containing neither enzyme nor inhibitor.

For test [2], the target named is T1, Human recombinant MAGL. Nature of the test: MAGL inhibition with or without the thiol-containing agent DTT. The protocol:
(§1) Furthermore, with the aim of establishing whether the mechanism of inhibition was reversible or irreversible, the effects of preincubation on the inhibitory activity of compounds VS1 and VS2 were evaluated. In this assay, the compounds were preincubated with the enzyme for 0, 30 and 60 min before adding the substrate to start the enzymatic reaction. An irreversible inhibitor should show a higher potency after longer incubation times, whereas a reversible inhibitor should display a constant inhibition potency that is independent from the incubation time. […] Taken together, these experimental studies, aimed at better characterizing the mode of action of compounds VS1 and VS2, further supported the reliability of the binding mode predicted for the two ligands.
Human recombinant MAGL and 4-nitrophenyl acetate substrate (4-NPA) were bought from Cayman Chemical (Ann Arbor, MI, USA). The reversible compound 17b reported by Granchi et al. in 2016 was synthesized in our laboratory and used as reference compound [19]. Compound 3l was synthesized in our laboratory according to the procedure reported by Aida et al. and used as reference compound. The IC50 values were produced in 96-well microtiter plates. The MAGL reaction was carried out at rt at a final volume of 200 µL in 10 mM Tris buffer, pH 7.2, containing 1 mM EDTA and 0.1 mg/mL BSA. A total of 150 µL of 4-NPA 133.3 µM was added to 10 µL of DMSO containing the appropriate amount of compound. The reaction was started by adding 40 µL of MAGL (11 ng/well) in such a way that the assay was linear over 30 min. After the reaction had progressed for 30 min, absorbance values were measured by using a VictorX3 instrument (PerkinElmer, Waltham, MA, USA) at 405 nm. Two more reactions were carried out: one reaction containing no compounds and the second one containing neither enzyme nor inhibitor. To remove possible false positive results, a blank analysis was performed for each compound concentration and the final absorbance results were obtained detracting the absorbance produced by the presence of all the components except MAGL in the same conditions.

The target in test [3] is T1, Human recombinant MAGL. Nature of the test: MAGL inhibition after preincubation of compound with enzyme (reversibility). The note with it: preincubated with the enzyme for 0, 30 and 60 min before adding the substrate. The protocol: as §1
Human recombinant MAGL and 4-nitrophenyl acetate substrate (4-NPA) were bought from Cayman Chemical (Ann Arbor, MI, USA). […] After the reaction had progressed for 30 min, absorbance values were measured by using a VictorX3 instrument (PerkinElmer, Waltham, MA, USA) at 405 nm. […] To remove possible false positive results, a blank analysis was performed for each compound concentration and the final absorbance results were obtained detracting the absorbance produced by the presence of all the components except MAGL in the same conditions.

Where [4] appears, read: assayed in the absence of DTT, read-out: IC50 in the absence of DTT.
Setting [5] is: assayed in the presence of 10 µM DTT, read-out: IC50 in the presence of DTT.

As a reminder, the IC50 is the concentration needed to halve the response being measured. For `O=C(c1ccc(Cl)cc1)C1CCN(C(=O)c2cccc(O)c2)CC1` [Compound 17b, reference compound], the IC50 on Human recombinant MAGL [1] came to 0.9 ± 0.08 µM.

In the case of `Cc1cc(=O)[nH]c(-c2ccc(NS(=O)(=O)c3ccc(F)cc3Cl)cc2)n1` [VS1], the figures for the IC50 on Human recombinant MAGL [1], on Human recombinant MAGL [2] (setting [4]) and at Human recombinant MAGL [2] (setting [5]) were 34.7 ± 2.4 µM, 35.4 µM and 34.1 µM, respectively. In addition, the “Effect of preincubation time on inhibitory potency (reversible or irreversible mechanism)” value at Human recombinant MAGL [3] is reported as “did not show any significant increase in inhibitory potency at longer incubation times”.

For `O=C(c1ccco1)N1CCN(C2=CC(=O)N(c3cccc(Cl)c3)C2=O)CC1` [VS2], the IC50 came out at 48.9 ± 4.2 µM at Human recombinant MAGL [1], 47.5 µM on Human recombinant MAGL [2] (setting [4]) and 49.5 µM on Human recombinant MAGL [2] (setting [5]). At Human recombinant MAGL [3], the “Effect of preincubation time on inhibitory potency (reversible or irreversible mechanism)” value was “did not show any significant increase in inhibitory potency at longer incubation times”.

Consider `CC(C)c1ccc(OCC(=O)Nc2ccc(-c3nc4ccccc4c(=O)o3)cc2)cc1` [VS3], for which, on Human recombinant MAGL [1], the concentration for half-maximal inhibition (IC50) came out at 79.4 ± 6.3 µM.

`O=C(c1ccco1)N1CCN(C2CC(=O)N(c3cccc(Cl)c3)C2=O)CC1` (stereo not shown) [VS4]: on Human recombinant MAGL [1], the IC50 turned out to be 138 ± 11 µM.

`O=C1c2ccc(-c3nc4ccccc4c(=O)o3)cc2C(=O)N1Cc1ccc(Cl)cc1` [VS5]: the IC50 on Human recombinant MAGL [1] is over 200 µM.

Regarding `O=C(Nc1nnc(C2CC(=O)N(c3ccccc3)C2)s1)c1cccc(Br)c1` (stereo not shown) [VS6], at Human recombinant MAGL [1], the IC50 is over 200 µM.
